Patent publication US11220516B2, “Nitric oxide-releasing antibiotics, methods of making, and methods of use” (University of Georgia Research Foundation, Inc., priority 2019, dated 2022)
Where two headings read alike, the source gives them in different places.

How the values were obtained:
[1] = NO release from blended CarboSil polymer films over 7 days and NO donor remaining (UV-VIS); type: physicochemical; conditions: for NO donor remaining within the CarboSil polymer films: 168 h
Method: (§1) Real time NO release was measured using a Sievers 280i NOA (Nitric Oxide Analyzer). Polymer films containing SNAPicillin or SNAP were immersed in amber reaction vessels containing PBS (pH 7.4) with 100 μM EDTA to chelate any metal ion contaminants within the buffer. Solutions were continuously purged with a nitrogen sweep gas and bubbler to carry the NO from the solution directly to the NOA. In a separate NO releasing study, solutions containing 500 μM of either SNAPicillin or SNAP in PBS with EDTA were also tested under physiological conditions to obtain the stabilized NO release profile to compare passive release kinetics.
A separate NO release study was also done by physically blending equimolar amounts into solutions of CarboSil, and solvent casting a thin polymer film to be analyzed. Since polymer films blended with SNAP are a common strategy to create a surface with controlled, localized NO release, a comparison of NO release was done using SNAPicillin containing polymer films to examine its potential as an alternative novel NO donor. The fabricated films were placed in PBS (pH 7.4) containing 0.01 mM EDTA at 37° C. to observe the real time NO releasing kinetics. […] This is contrary to the pure solutions that were previously placed under physiological conditions, where SNAP was able to have a higher initial release. The difference is most likely is due to the leaching rate of either SNAP or SNAPicillin from a hydrophobic polymer matrix.
The amount of NO donor remaining in the films was also quantified using UV-VIS after this time period to examine the potential release beyond the recorded 7 days. […] As mentioned previously, due to the larger molecular weight of SNAPicillin, it was able to stay within the CarboSil matrix for a longer period of time when compared to SNAP blended films. This further emphasizes the versatility of the SNAPicillin donor as a possible RSNO donor substitute for NO releasing polymers that require sustained or controlled release kinetics with the additional antimicrobial functionality.

[2] = SNAP leachate from blended CarboSil films in PBS (UV-vis absorbance at 340 nm); type: physicochemical; conditions: equimolar blend in CarboSil films, PBS at 37° C., end of 4 day study
Method: Leaching of SNAPicillin and SNAP was done by first blending equimolar amounts of the corresponding chemical (33.33 μmol mL^−1) into solutions of CarboSil dissolved in THF (50 mg mL^−1) and subsequently cast into Teflon molds to dry overnight. The dried films were then weighed and measured before being submerged into PBS. Quantification of SNAP leaching into solution was done by measuring absorbance at 340 nm via UV-vis analysis.
(§2) One issue holding back using the direct administration of NO donors as an effective therapeutic is its short half-life. To address this, a common method for controlling and directing the NO release of a donor in a localized and targeted area is to encapsulate it within a polymer. This strategy is also used for antibiotics and antiseptics as well, as catheters have been fabricated with physically blended drugs to combat and prevent infection.^28-30 One key advantage for modifying the ampicillin with SNAP was its change in solubility. A large majority of antibiotics are not soluble in organic solvents, limiting its ability to evenly disperse within polymer matrices when coated or impregnated within the bulk material. […] The polymer films were measured and weighed before being immersed in PBS at 37° C. and were periodically taken out to examine either SNAP or ampicillin leachates (FIGS. 3A-3B). […]

[3] = system: 48 h old preformed S. aureus biofilms; assay: Biofilm dispersal assay on CarboSil polymer films; type: cell-based, Staphylococcus aureus (ATCC 6538); conditions: for reduction in planktonic bacteria in solution: bacteria shed from 48 h S. aureus biofilm; for inhibition at 500 µM: Staphylococcus aureus, read-out: reduction of viable bacteria adhered on the films (biofilm)
Method: Biofilms were grown for 48 h on circular CarboSil polymer films fabricated with a surface area of 1 cm^2. Solutions of S. aureus were prepared by placing one colony of bacteria in Luria Broth and incubated at 37° C. until the solution reached approximately 10^6 to 10^8 CFU mL^−1. Each polymer film was suspended in 2 mL of the bacteria solution and the solution was replenished with a fresh bacteria solution at 24 h of incubation. For the duration of the study the samples were incubated on a shaker at 150 rpms. After 48 h, the films were removed from the bacteria solutions and each film was gently rinsed with 5 ml of sterile PBS to remove any planktonic bacteria. The films were next incubated with 1 mL their specified test solutions and each solution type was tested at n=4. Each test solution was prepared with sterilized PBS and calculated to contain either 500 μM of ampicillin, SNAP, or SNAPicillin. After 24 h, the polymer films were removed from the test solutions, gently rinsed with PBS to remove planktonic bacteria, and homogenized in sterile PBS to remove any viable bacteria from the biofilm. The collected bacteria were serially diluted, plated on LB agar, and incubated for 18 h to achieve countable CFUs for comparison. A similar procedure was then done for the planktonic bacteria suspended in the solution of the incubated films to observe viable bacteria that shed from the potentially dispersed biofilms.
While NO release from SNAP may have difficulties diffusing through agar for disk diffusion testing, it is extremely potent at dispersing biofilms. […] The polymer films were then immersed into solutions containing either ampicillin, SNAP, or SNAPicillin at a concentration of 500 μM and the adhered bacteria remaining on the film as well as the planktonic bacteria within the solutions were observed (FIGS. 7 and 8).

[4] = NO release kinetics of 500 μM solutions (Sievers 280i Nitric Oxide Analyzer); type: physicochemical; conditions: 500 μM in PBS (pH 7.4) with EDTA, 37° C., 4 h
Method: as §1
The NO release of the synthesized SNAPicillin was compared to pure SNAP by dissolving equimolar (500 μM) amounts of each into separate solutions of PBS (pH 7.4) containing 0.01 mM EDTA and placing them in an amber reaction vial submerged within a water bath at 37° C. while NO release was monitored in real time. Nitrogen gas was used to continuously purge the solution to examine the stabilized, passive release under these conditions. […] Although equimolar amounts of each component were used, the RSNO component on the SNAPicillin appears to be less reactive when compared to pure crystalline SNAP under physiological conditions.

S. aureus = assay: Zone of inhibition assay (agar diffusion) of blended CarboSil films; type: cell-based, Staphylococcus aureus (ATCC 6538); conditions: 8 mm diameter; for ZOI values against S. aureus: overnight at 37° C.
Method: Zone of inhibition (ZOI) testing was done on polymer films containing the same composition of either ampicillin, SNAP, or SNAPicillin used in the leachate and NOA studies. A standard agar diffusion protocol was followed and tested against S. aureus. A single colony of bacterium was suspended into LB and incubated at 37° C. for 14 h while being rotated at 150 rpm. The optical density of each bacterial culture was then measured at 600 nm using a UV-Vis spectrophotometer. The observed optical density was adjusted to 1×10^7 colony forming units per mL using a standard calibration curve of each corresponding bacteria. A sterile cotton swab was then used to dip into each culture media and spread onto premade LB-agar petri dishes. The polymer films of either ampicillin, SNAP, SNAPicillin, along with controls (diameter: 8 mm, thickness: 200 μm) were then placed on top of the petri dishes and allowed to incubate overnight at 37° C. The ZOI was then measured and compared the following day to observe the antimicrobial effects of synthesized SNAPicillin molecule within a hydrophobic matrix.
A significant advantage of using targeted antibiotics over NO releasing polymers is seen in its ability to prevent bacteria growth. […] To ensure the SNAP attachment to ampicillin was not interfering with this targeted potency, a zone of inhibition (ZOI) test against S. aureus was done. […] This trend has been seen in the past with NO releasing hydrophobic polymers, where the ZOI is extremely limited beyond the interface of the polymer itself.^32
The characterization of covalent attachment of SNAP was verified through FTIR (Fourier Transform Infrared Spectroscopy) and NMR (Nuclear Magnetic Resonance Spectroscopy) and its NO releasing characteristics were compared to pure, unmodified SNAP. The combination of both NO and ampicillin in one unique compound allows for the dispersal of biofilms while making them more susceptible to the antibiotic moiety. […]

biofilms = conditions: as low as; cited from earlier work
[5] = Ampicillin leachate from blended CarboSil films in PBS with EDTA (alkaline potassium permanganate oxidation); type: physicochemical; conditions: equimolar blend in CarboSil films, PBS at 37° C., 4 days
From the text: Ampicillin eachate from CarboSil films was done by making polymer solutions with equimolar amounts of SNAPicillin and ampicillin. Ampicillin was first dissolve in a small amount of methanol before being added to CarboSil in THF solutions and then solvent casted into Teflon molds. Films were then weighed and immersed in PBS containing EDTA. Quantification of ampicillin leaching into solution was done via the oxidation reaction with alkaline potassium permanganate following a previously established protocol.^24
as §2, with “solubility.” for “solubility. A large majority of antibiotics are not soluble in organic solvents, limiting its ability to evenly disperse within polymer matrices when coated or impregnated within the bulk material.”

[6] = 500 μM solution in PBS, 24 h treatment
[7] = 500 μM solution in PBS, 24 h treatment, 48 h S. aureus biofilm

| SMILES | cumulative leaching from films, SNAP leaching study [2] [μmol cm-2] | reduction in planktonic bacteria in solution [3, 6] [%] | ZOI values against S. aureus (S. aureus) [mm] | cumulative leaching from films, ampicillin study [5] [μmol cm^−2] | also measured |
| --- | --- | --- | --- | --- | --- |
| CC(=O)N[C@H](C(=O)O)C(C)(C)SN=O (racemic) [SNAP, S-nitroso-N-acetylpenicillamine] | 1.307±0.536 | 96.2±1.15 |  |  | NO donor remaining within the CarboSil polymer films ([1]; pH 7.4): 0.25±0.17%; inhibition at 500 µM [3]: 99.2 ± 0.762%; stabilized passive NO release rate of solutions [4]: slightly higher rate of NO release than SNAPicillin solutions; zone of inhibition against S. aureus, in words (S. aureus): only killing bacteria directly in contact with the film |
| [N]=O [NO, nitric oxide] |  |  |  |  | concentration of NO able to trigger the biofilm dispersal mechanism (biofilms): 450 pM |
| CC(=O)NC(C(=O)NC(C(=O)NC1C(=O)N2C1SC(C)(C)C2C(=O)O)c1ccccc1)C(C)(C)SN=O (stereo not drawn) [SNAPicillin] | 0.051±0.10 | 99.5±0.264 | 34.0±1.40 | 0.043±0.003 | NO donor remaining within the CarboSil polymer films [1]: 21.9±1.72%; NO flux from blended films ([1]; equimolar blend in CarboSil films, PBS (pH 7.4) with EDTA, 37° C., 7 days): higher NO fluxes at every time point when compared to SNAP; reduction of viable bacteria adhered on the films (biofilm) [3, 7]: 99.9±0.18% |
| CC1(C)S[C@@H]2[C@H](NC(=O)[C@H](N)c3ccccc3)C(=O)N2[C@H]1C(=O)O [ampicillin] |  | 90.0±1.13 | 34.5±1.50 | 0.087±0.003 | inhibition at 500 µM [3, 7]: 28.9 ± 5.89% |
